Consider two compounds from paper PMC12668304, “A Triple Threat Against Ovarian Cancer: Os(II)‐Pt(IV)‐Ceritinib Conjugates for Photodynamic Therapy, Chemotherapy, and Immunogenic Cell Death Induction” (Angewandte Chemie (International Ed. in English), 2025).

Read-outs that look alike come from different tables or passages of the source.

In this experiment the test system is A2780 cells. The experiment can be described thus: (Photo-)cytotoxicity on 2D cell monolayers, resazurin assay. It is filed as cell-based, human. The conditions noted are these: A2780, normoxic, dark, 4 h exposure, total 48 h incubation, read-out: IC50 Dark. The method, then:
The 2D cytotoxicity and phototoxicity profiles of Os‐Pt‐Cer and controls, were evaluated in a panel of cancerous cell lines, including A2780 (ovarian carcinoma), A549 (non‐small cell lung carcinoma), and MCA205 (murine fibrosarcoma), as well as a non‐cancerous retinal pigment epithelial cell line (RPE‐1). Cells were treated with the compounds (0.003–100 µM) for 4 h, either kept in the dark or irradiated at 670 nm (13.5 J cm^− ^2) (Table S4 and Figure S22) or 740 nm (12.6 J cm^− ^2) and viability was assessed 44 h post‐treatment. To verify robustness, the incubation was extended to 72 h. […]
Human ovarian cancer (A2780) cells and mouse fibrosarcoma cells (MCA205) were cultured in RPMI media. Retinal pigment epithelium (RPE -1) cells were cultured in DMEM/F -12 medium. Lung cancer cells (A549) were cultured in F -12K medium. These cell lines were complemented with 10% of fetal bovine serum, 100 U/mL penicillin -streptomycin mixture, and maintained in a humidified atmosphere […]
(Photo-)cytotoxicity on 2D cell monolayers
The cytotoxicity of the compounds was assessed by measuring cell viability using a resazurin assay.
The cells were seeded in triplicates in 96 well plates with a density of 10 4 cells per well in 100 μL of media. After 24 h, the medium was removed, and the cells were treated with increasing concentrations (0.003 → 100 µM) of the compounds diluted in cell media , achieving a total volume of 100 μL/well.
The cells were incubated with the compound for 4 h (final incubation time 48 h) or 24 h (final incubation time 72 h). After this time, the media was removed and replaced with 100 μL of fresh medium. For the phototoxicity studies, the cells were exposed to light with an Atlas Photonics LUMOS BIO irradiation system. Each well was constantly irradiated at 670 nm (60 min, 13.50 J·cm-2) or 740 nm (60 min, 12.60 J·cm-2). During the irradiation, the temperature of the plate was maintained at 37 °C. The cells were grown in the incubator for an additional 44 or 48 h, respectively. For the determination of the dark cytotoxicity, the cells were not irradiated and after the medium exchange directly incubated for 44 h.
After this time, the medium was replaced with fresh medium containing resazurin (0.2 mg/mL). After […]
4 h of incubation, the conversion of resazurin into resorufin was determined upon excitation at 540 nm and measurement of its emission at 590 nm using a Cytation 5 Imaging Reader from BioTek. The obtained data was analysed with the GraphPad Prism software […]
After 24 h of incubation at 37 °C, 5% CO 2, plates were read using a SpectraMaxM2 Microplate Reader ( λexc = 540 nm; λread = 590 nm). Fluorescence data were normalised, and data were fitted using GraphPad Prism Software, and IC 50 was calculated by non - linear regression. Changes in the size and shape of MCTS were monitored every 24 h using Cytation 5 Imaging Reader from BioTek, objective x4.
Intracellular distribution by confocal fluorescence microscopy
10^4 cells/well (A2780 cells) were seeded in complete medium (RPMI) in µ -slide 8 well (Ibidi) (100 µl/well) and left for 24 h to attach to the bottom. Then, the culture medium was removed , and 100 µl of solution of the corresponding complexes (5 µM) was added. The complexes were incubated with the cells for 4 hours. Thereafter, the medium was removed and replaced by RPMI without phenol red , and Hoechst and MitoTracker Green were added at a final concentration of 1 µg/mL. They were incubated with the cells for 30 min in the dark at 37 °C. Images were collected in a sequential mode in a Leica TCS SP8 confocal microscope with a 60x oil immers ion objective, a line average of 4, and a format of […]
(MTG)→ 500 -550nm, and 488 nm (complexes)→ 680 -730 nm. The confocal pinhole was 1 Airy unit.
Images were analysed with LAS X Flim FCS software.
Intracellular distribution by ICP -MS

With `O=C1[O][Pt]2([NH][C@@H]3CCCC[C@H]3[NH]2)[O]C1=O` [Oxaliplatin], the IC50 is 46.15 ± 0.2 µM. Consider `Cc1cc(Nc2ncc(Cl)c(Nc3ccccc3S(=O)(=O)C(C)C)n2)c(OC(C)C)cc1C1CCNCC1` [Ceritinib], for which, for the setting “Homo sapiens”, the IC50 worked out at 2.61 ± 0.5 µM.
